In US8143212B2 (Vicuron Pharmaceuticals Inc., priority 2002, dated 2012):
In brackets after ≈: the same amount, converted by molar mass. Several values for one entry are separate records, joined by “and”; a condition that tells them apart may be missing. Equal values may be shown once. Read-outs that look alike come from different tables or passages of the source.

Experiments:
Staph. aureus = experiment: ED50 against Staph. aureus murine septicaemias (Table 2); format: in vivo; details: Staphylococcus aureus, sc, 10 min
S aureus = experiment: MIC, microbiological activity (Tables 2, 3); format: cell-based; details: Staphylococcus aureus, read-out: MIC
[1] = tested on: catheter-related blood stream infection (CR-BSI) due to gram-positive bacterial pathogens; experiment: CR-BSI trial: efficacy (overall, clinical, microbiological response); format: in vivo, human; details: microbiological ITT population at TOC; dalbavancin 1000 mg Day 1 + 500 mg Day 8 IV; vancomycin 1000 mg IV every 12 hours
Method: Patients with CR-BSI due to suspected or known Gram-positive pathogen(s) who met the inclusion/exclusion criteria were randomized to one of two treatment arms in this open-label, comparative, multi-center study. Dalbavancin was administered once weekly in weekly dalbavancin and comparator (vancomycin) was administered daily in vancomycin. Catheter removal was required for patients with Staphylococcus aureus infection; catheter management was left to the Investigator's discretion for patients with coagulase-negative staphylococci (CoNS) infection. Efficacy was clinically based on the improvement or resolution of clinical signs and symptoms of CR-BSI such that no additional antibacterials were warranted, and microbiologically on the eradication or presence of the baseline or other pathogens.
The treatment lasted for 14 days for patients with S. aureus infection, and 7 to 14 days for all other pathogens. […] Vancomycin was administered intravenously with a 1000 mg dose every 12 hours (or dose-adjusted based on drug levels).
Efficacy was evaluated based on clinical and microbiological responses.

gram positive bacteria [2] = experiment: MIC by broth microdilution (NCCLS), with or without 30% bovine serum (Table 42); format: cell-based
Method: (§1) Before dissolution, each sample was analyzed by HPLC and quantified.
(§2) The microorganisms used were reference strains obtained from the American Type Culture Collection (ATCC) (Rockville, Md.), SmithKline and French Laboratories (SKF), and the Upjohn Company (UC) (Kalamazoo, Mich.).
(§3) MICs were determined by the broth microdilution methodology following the standard NCCLS procedure (NCCLS Document M7-A6, Vol. 23, No. 2, “Methods for dilution antimicrobial susceptibility tests for bacteria that grow aerobically.” Approved Guideline. January 2003, which can be herein incorporated by reference in its entirety), with or without 30% adult bovine serum (BS) (PAA Laboratories GMBH, Haidmannweg Pasching Austria), using bacterial innocula at approximately 5×10^5 CFU/ml. The media employed included cation-adjusted Müller Hinton broth (Difco Laboratories, Detroit, Mich.) that was used that was adjusted with CaCl2 and MgCl2 to a final concentration of 20 mg/L and 10 mg/L, respectively. Tests were read following 20-24 hours of incubation at 35° C.

gram-negative bacteria = experiment: MIC by broth microdilution (NCCLS) (Table 42); format: cell-based
Method: as §1, §2, §3

[3] = tested on: panel of gram-positive bacteria; experiment: MIC by broth microdilution (NCCLS) of IsoB0 and reference compounds (Table 44); format: cell-based
Method: Müller Hinton broth (Difco Laboratories, Detroit, Mich., USA) adjusted with CaCl2 and MgCl2 to a final concentrations of 20 mg/L and 10 mg/L respectively.
The microorganisms used are reference standard strains from the American Type Culture Collection (ATCC, Rockville, USA), Smith Kline and French Laboratories (SKF) and the Upjohn Company (UC, Kalamazoo, Mich., USA).
(§4) MICs were determined by the broth microdilution methodology following the standard NCCLS procedure, with or without 30% bovine serum, using bacterial inocula of approximately 5×10^5 CFU/mL. Tests were read after 20-24 h incubation at 35° C.

[4] = tested on: Candida albicans SKF 2270; experiment: MIC by broth microdilution (NCCLS) (Tables 42, 44); format: cell-based
[5] = tested on: Escherichia coli, Proteus vulgaris, Pseudomonas aeruginosas; experiment: MIC by broth microdilution (NCCLS) of IsoB0 and reference compounds (Table 44), non-gram-positive bacterial strains; format: cell-based
Method: as §4

gram positive bacteria [6] = details: NCCLS M100 S-12, cited from earlier work
CR-BSI trial: safety = details: in vivo
Method: Safety was evaluated by the collection and analysis of data on adverse events (AEs), clinical laboratory tests, physical examinations, vital signs, and ECGs.

[7] = tested on: N,N′-diacetyl-Lys-D-Ala-D-Ala; experiment: Isothermal titration calorimetry of tri-peptide binding, with and without HSA (Table 39); details: for Kd: read-out: Kdiss
Method: Antibiotics and peptides were dissolved in aqueous buffer (20 mM Na phosphate, 150 mM NaCl, pH 7.4) containing HSA, with gentle stirring immediately before each experiment. Peptide concentrations were determined by weight. […] HSA concentrations were determined by UV absorbance (HSA, ε280=37,700; A280^1%=5.44). Spectra were recorded at room temperature in 1 cm pathlength quartz cuvettes using Shimadzu UV-160A or UV-1601 spectrophotometers, with samples diluted quantitatively with buffer if necessary to give absorbance in the 0.1-1 A range.
Isothermal titration calorimetry was performed using a Microcal VP-ITC instrument at 25° C. and 37° C. using standard operating procedures. […] Samples were degassed gently prior to loading to prevent bubble formation in the calorimeter cell. […] Control experiments involved injection of ligand into buffer under identical conditions to determine heats of peptide dilution, and these values were used for correction of raw binding data prior to analysis.

[8] = ESI-MS of multimers in solution (concentration, pH, ionic strength); format: physicochemical
Method: Experiments were performed using an Applied Biosystem API III+ mass spectrometer equipped with a TurboIonSpray source, a Triple Quadrupole analyzer, operating in positive ion mode.
The mass spectra were obtained in electrospray positive mode on a Finnigan LCQ^Deca ion trap instrument previously tuned and calibrated in electrospray mode using Ultramark 1621, caffeine and MRFA (L-metionyl-arginyl-phenilalanyl-arginine).
The mass spectra were obtained in electrospray positive mode on a Finnigan LCQ^Deca ion trap instrument previous tuned and calibrated in electrospray mode using Ultramark 1621, caffeine and MRFA (L-metionyl-arginyl-phenilalanyl-arginine).

human albumin = human albumin (Homo sapiens, UniProt P02768); experiment: Protein binding by isothermal titration microcalorimetry (Tables 27, 28); details: for Calculated percent Binding: Human albumin (6×10^−4 M)
Method: (§5) Integrated heat effects, after correction for heats of dilution, were analyzed by non-linear regression using a simple single-site binding model with the standard Microcal ORIGIN software package. Raw data (μcal/sec) for each injection were integrated to give the total heat effect per addition, then divided by amount of injectant to give kcal/mole of injectant. The same integration was applied for control dilution effects, and this was subtracted from the actual titration data. This provided a differential of the binding curve in which the extent of binding is proportional to the total heat liberated (or absorbed). This was then analyzed by non-linear regression methods in terms of various standard binding models. The simplest model assumes simple non-competitive binding equilibrium, and gives three parameters:

human α-glycoprotein = experiment: as above; details: for Calculated percent Binding: Human α-glycoprotein ([…]10^−5 M)
Method: as §5

[9] = Enterococcus faecalis ATCC 7080
[10] = Enterococcus faecalis, ATCC29212
[11] = Staphylococcus aureus, ATCC19636
[12] = Staphylococcus aureus, ATCC29213
[13] = Staphylococcus epidermidis, ATCC12228

human albumin, sequence (P02768 25-609): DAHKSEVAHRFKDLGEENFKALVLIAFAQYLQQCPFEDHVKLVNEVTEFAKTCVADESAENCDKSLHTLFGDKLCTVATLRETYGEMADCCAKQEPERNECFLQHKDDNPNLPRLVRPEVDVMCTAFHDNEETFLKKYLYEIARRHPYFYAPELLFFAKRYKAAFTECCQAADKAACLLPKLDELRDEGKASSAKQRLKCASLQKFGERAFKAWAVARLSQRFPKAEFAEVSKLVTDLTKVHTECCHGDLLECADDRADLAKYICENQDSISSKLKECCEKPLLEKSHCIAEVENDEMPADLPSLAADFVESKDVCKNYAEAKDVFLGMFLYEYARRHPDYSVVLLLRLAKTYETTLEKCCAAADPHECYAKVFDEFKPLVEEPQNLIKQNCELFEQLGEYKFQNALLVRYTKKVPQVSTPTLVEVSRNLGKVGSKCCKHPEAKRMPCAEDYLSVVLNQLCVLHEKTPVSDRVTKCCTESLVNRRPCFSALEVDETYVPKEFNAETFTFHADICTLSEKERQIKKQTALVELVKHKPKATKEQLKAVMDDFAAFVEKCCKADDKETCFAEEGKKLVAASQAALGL

## CN[C@H](CC(C)C)C(=O)N[C@H]1C(=O)N[C@@H](CC(N)=O)C(=O)N[C@H]2C(=O)N[C@H]3C(=O)N[C@H](C(=O)N[C@H](C(=O)O)c4cc(O)cc(O)c4-c4cc3ccc4O)[C@H](O)c3ccc(c(Cl)c3)Oc3cc2cc(c3O[C@@H]2O[C@H](CO)[C@@H](O)[C@H](O)[C@H]2O[C@H]2C[C@](C)(N)[C@H](O)[C@H](C)O2)Oc2ccc(cc2Cl)[C@H]1O [Vancomycin]
Staph. aureus; MRSA
  ED50: 1 mg/kg
Staph. aureus; MSSA
  ED50: 1.7 mg/kg
S aureus; MRSA Staph. aureus 3817
  MIC: 0.5 µg/mL (≈ 0.345 µM)
S aureus; MSSA Staph. aureus Smith 819
  MIC: 0.5 µg/mL (≈ 0.345 µM)
[1]
  overall response success rate: 50.0%
Gram positive bacteria [2]
  MIC: 1 µg/mL (≈ 0.69 µM)
Gram positive bacteria [2]; Bacillus subtilis ATCC 6633
  MIC: ≤ 0.125 µg/mL
Gram positive bacteria [2]; [9]
  MIC: 1 µg/mL (≈ 0.69 µM)
Gram positive bacteria [2]; [10]
  MIC: 2 µg/mL (≈ 1.38 µM)
Gram positive bacteria [2]; [11]
  MIC: 1 µg/mL (≈ 0.69 µM)
Gram positive bacteria [2]; [12]
  MIC: 2 µg/mL (≈ 1.38 µM)
Gram positive bacteria [2]; [13]
  MIC: 2 µg/mL (≈ 1.38 µM)
Gram positive bacteria [2]; Streptococcus pneumoniae, UC41
  MIC: 0.5 µg/mL (≈ 0.345 µM)
gram-negative bacteria
  MIC: > 128 µg/mL
gram-negative bacteria; Escherichia coli
  MIC: > 128 µg/mL
gram-negative bacteria; Escherichia coli, ATCC25922
  MIC: > 128 µg/mL
gram-negative bacteria; Proteus vulgaris ATCC 881
  MIC: > 128 µg/mL
[3]; Bacillus subtilis ATCC 6633
  MIC: ≤ 0.125 µg/mL
[3]; [9]
  MIC: 1 µg/mL (≈ 0.69 µM)
[3]; [10]
  MIC: 2 µg/mL (≈ 1.38 µM)
[3]; [11]
  MIC: 1 µg/mL (≈ 0.69 µM)
[3]; [12]
  MIC: 2 µg/mL (≈ 1.38 µM)
[3]; [13]
  MIC: 2 µg/mL (≈ 1.38 µM)
[3]; Streptococcus pneumoniae, UC41
  MIC: 0.5 µg/mL (≈ 0.345 µM)
[3]; Streptococcus pyogenes
  MIC: 1 µg/mL (≈ 0.69 µM)
[4]; Candida albicans SKF2270 (Table 44)
  MIC: >128 µg/mL
[4]; Candida albicans, SKF2270
  MIC: > 128 µg/mL
[5]
  MIC: > 128 µg/mL
[5]; Escherichia coli
  MIC: > 128 µg/mL
[5]; Escherichia coli, ATCC25922
  MIC: > 128 µg/mL
[5]; Proteus vulgaris ATCC 881
  MIC: > 128 µg/mL
Gram positive bacteria [6]; E. faecalis ATCC29212 ref. strain
  Quality control range of MICs for reference strains: ^2VA 1-4 mg/L
Gram positive bacteria [6]; S. aureus ATCC 29213 ref. strain
  Quality control range of MICs for reference strains: ^1VA 0.5-2 mg/L
CR-BSI trial: safety; human, intravenous
  patients with AEs that led to discontinuation of study drug: 8.8%
CR-BSI trial: safety
  SAE considered to be related to study drug: one SAE
[7]; T 10 ° C., [HSA] 0 μM
  Kass: 690000 M⁻¹
  Kd: 1450 nM
[7]; T 25 ° C., [HSA] 0 μM
  Kass: 340000 M⁻¹ and 360000 M⁻¹
  Kd: 2940 nM and 2780 nM
[7]; T 25 ° C., with HSA 513 μM
  Kass: 290000 M⁻¹
  Kd: 3450 nM
[7]; absence of serum proteins
  binding to dipeptide (D-Ala-D-Ala) or to Lys-D-Ala-D-Lactate: no evidence of binding

## Teicoplanin
[8]
  multimers in solution (ESI-MS): does not show multimeric complexes
Human albumin; antibiotic 1 μM
  Calculated percent Binding: 98.3%
Human albumin; antibiotic 10 μM
  Calculated percent Binding: 98.3%
Human albumin; antibiotic 100 μM
  Calculated percent Binding: 98.0%
Human albumin; Human albumin, 25° C., pH 7.4
  apparent binding affinity (Ka): 0.96 (±0.08) ×10^5 M^−1
Human α-glycoprotein; antibiotic 1 μM
  Calculated percent Binding: 9.6%
Human α-glycoprotein; antibiotic 10 μM
  Calculated percent Binding: 9.1%
Human α-glycoprotein; antibiotic 100 μM
  Calculated percent Binding: 6.0%
Human α-glycoprotein; α-glycoprotein, 25° C.
  apparent binding affinity (Ka): 0.07 (±0.01) ×10^5 M^−1
